According to US11667637B2, “Fused imidazo-piperidine JAK inhibitors” (THERAVANCE BIOPHARMA R&D IP, LLC, priority 2017, dated 2023):

Key:
[1] = system: IL-6 stimulated STAT3 phosphorylation in CD3+ T cells; assay: Inhibition of IL-6 stimulated pSTAT3 in CD3+ T cells; assay type: cell-based, human; conditions: statement in words
Source text: Assay 10: Cellular JAK Potency Assay: Inhibition of IL-6 Stimulated pSTAT3 in CD3+ T Cells
A protocol analogous to that of Assay 9 was used to determine the potency of the test compound for inhibition of interleukin-6 (IL-6) stimulated STAT3 phosphorylation. An Alexa Fluor 647 conjugated anti-pSTAT3 antibody (pY705, Clone 4/P, BD Biosciences) was used to detect STAT3 phosphorylation.

[2] = system: IL-5 mediated survival of human eosinophils; assay: IL-5 mediated eosinophil survival assay; assay type: cell-based; conditions: statement in words
Experimental: Assay 6: IL-5 Mediated Eosinophil Survival Assay
The potency of the test compound for IL-5 mediated eosinophil survival was measured in human eosinophils isolated from human whole blood (AllCells). Because IL-5 signals through JAK, this assay provides a measure of JAK cellular potency.
Human eosinophils were isolated from fresh human whole blood (AllCells) of healthy donors. Blood was mixed with 4.5% Dextran (Sigma-Aldrich) in a 0.9% sodium chloride solution (Sigma-Aldrich). Red blood cells were left to sediment for 35 minutes. The leukocyte rich upper layer was removed and layered over Ficoll-Paque (GE Healthcare) and centrifuged at 600 g for 30 minutes. The plasma and mononuclear cell layers were removed before the granulocyte layer was lysed with water to remove any contaminating red blood cells. […] Purity was analyzed using a LSRII flow cytometer (BD Biosciences). […]
After cytokine stimulation, cells were centrifuged at 300 g for 5 min and washed twice with cold DPBS (Life Technologies). To access viability and apoptosis, cells were incubated with Propidium Iodide (Thermo Fisher Scientific) and APC Annexin V (BD Biosciences) and analyzed using a LSRII flow cytometer (BD Biosciences). IC50 values were determined from analysis of the viability curves of percent cell viability vs compound concentration. Data are expressed as pIC50 (negative decadic logarithm IC50) values.

CCc1cc(O)c(F)cc1-c1ccc2c(-c3nc4c([nH]3)CN(C(C)C)[C@H](C(=O)N3CC[C@H](N(C)C)C3)C4)n[nH]c2c1 [Example 3]
inhibition of IL-6 signaling [1]: inhibit IL-6 signaling

CCCN1Cc2[nH]c(-c3n[nH]c4cc(-c5cc(F)c(O)cc5CC)ccc34)nc2C[C@H]1C(=O)N1C[C@@H]2C[C@H]1CN2C [Example 1, ((S)-2-(6-(2-ethyl-5-fluoro-4-hydroxyphenyl)-1H-indazol-3-yl)-5-propyl-4,5,6,7-tetrahydro-3H-imidazo[4,5-c]pyridin-6-yl)((1S,4S)-5-methyl-2,5-diazabicyclo-[2.2.1]heptan-2-yl)methanone]
inhibition of IL-6 signaling [1]: inhibit IL-6 signaling | inhibition of IL-5 mediated human eosinophil survival [2]: potently inhibit
